Experiments:
[1] = test system: trypsin-like proteasome activity in three-dimensional human skin model; assay: Proteasome activity in three-dimensional human skin model; type: cell-based; conditions: for proteasome activity compared to the sample not given any treatment under UV irradiation (75%) / proteasome activity compared to the sample not given any treatment: FIG. 11; for proteasome activity compared to the sample not given any treatment: without UV irradiation; for effect on proteasome activity: retinoic acid and retinol at 3 and 10 μM
Procedure: (§1) Three-dimensional human skin models are widely used in safety evaluation and effectiveness evaluation as a simulated model of human skin. In this test, TESTSKIN (LSE-high) (Toyobo Co., Ltd.) was used as a three-dimensional human skin model.
(§2) A culture medium was added to the outer well of TESTSKIN (LSE-high) and cultured for 24 hours. UVA and UVB were irradiated at 10 J/cm^2 and 100 mJ/cm^2, respectively. UVB was irradiated for 2 minutes at a UV intensity of […] using FL20S-E-30/DMR (Clinical Supply Co., Ltd.) to achieve a total irradiation dose of 100 mJ/cm^2. UV intensity was measured using a UV MONITOR MS-211-I (Eiko Instruments Co., Ltd.).
(§3) Thereafter, the culture solution was changed and each agent was added by 100 μl onto the tissues in the assay ring, after which the medium was cultured for 36 hours. Thereafter, the tissues were collected and a tissue extraction solution (50 mM Tris-HCl (pH 7.5), 0.5% (Octylphenoxy) polyethoxyethanol (Sigma-Aldrich Corp.)) was added, and then the mixture was homogenized using a Teflon (registered trademark) homogenizer. The homogenized mixture was centrifuged for 30 minutes at 10,000×G to remove tissue fragments, and then dialyzed overnight in distilled water at 4° C. Thereafter, the dialyzed mixture was freeze-dried to remove water. A tissue extraction solution was added to obtain a ×20 concentrate, and this concentrate was used as a three-dimensional skin model extract sample.
Proteasome activity was measured using a known method (Hayashi, et al., Mechanisms of Aging and Development, Vol. 102, pp. 55-66, 1998) based on cell extract samples.
The specific method is as follows. For the matrix to measure trypsin-like proteasome activity, t-butyloxycarbonyl-L-leucyl-L-arginyl-L-arginyl-L-4-methyl-coumaryl-7-amide (Peptide Institute, Inc.) was used. A cell extract sample containing protein by an equivalent of 10 μg was added to 10.5 μl of a 100 μM matrix solution prepared with 100 mM Tris-HCl (pH 8.0), after which a cell extraction solution was added to a total volume of 50 μl. The obtained solution was treated for 30 minutes at 37° C., after which the fluorescence intensity of the separated 7-amine-4-methyl coumarin was measured at an excitation wavelength (Ex) of 380 nm and absorption waveform (Em) of 440 nm. The result was obtained for each sample type treated with each agent, as an “average ±standard error” calculated from the measured values of three samples.
Based on the above results, it is clear that Bletilla striata extract and silybin promote proteasome activity in a three-dimensional skin model in a manner dependent on the concentration. Accordingly, whether or not a combined use of Bletilla striata extract and silybin would synergistically promote proteasome activity was evaluated. Also, whether or not a combined use of silybin and soybean saponin, a substance known to have an action to promote proteasome activity, would synergistically promote proteasome activity was evaluated. As a result, regardless of whether or not UV light was irradiated, using silybin (3 μM) in combination with Bletilla striata extract (0.1%; final extract concentration of 0.001%), or using silybin (3 μM) in combination with soybean saponin (0.0005%), promoted proteasome activity synergistically compared to when a sample was treated with silybin (3 μM), Bletilla striata extract (0.1%; final extract concentration of 0.001%) or soybean saponin (0.0005%) alone, as far as promotion of proteasome activity in a three-dimensional skin model was concerned (FIG. 12).

[2] = test system: carbonylated protein in three-dimensional human skin model TESTSKIN (LSE-high); assay: Carbonylated protein in three-dimensional human skin model, Western blotting (DNPH); type: cell-based; conditions: for Relative photographic density (carbonylated protein): untreated without UV = 100%; for effect on accumulation of carbonylated protein: retinoic acid and retinol at 3 and 10 μM
Procedure: as §1, §2
As a control group, three-dimensional human skin models not irradiated with UVA or UVB were also prepared.
as §3
In this test, 2,4-dinitrophenyl hydrazine (DNPH), which specifically bonds with the carbonyl group in the protein produced by oxidation damage, was used to label carbonylated protein, and then detection was performed using an anti-DNPH antibody that specifically bonds with DNPH.
The specific method is explained below. DNPH protein was detected from the protein in the sample by means of Western blotting using a DNPH kit (Oxi Blot™ Protein Oxidation Detection Kit; Chemicon International Inc.). Detection was performed by exposing PVDF membranes to light using a […] (ECL PLUS; Amarsham PLC), and an automatic developer (FPM100; FUJIFILM Medical Co., Ltd.) was used to transfer images. A densitometer (Molecular Dynamics Inc.) was then used to analyze the images to quantify the photographic density. For your information, protein in the sample was reduced and measured as deemed appropriate. In this case, 2-mercaptoethanol was used as a reducing agent and the mixture was heated for 5 minutes at 100° C. to sever the disulfide bond.
Based on the above results, it is clear that Bletilla striata extract and silybin suppress accumulation of carbonylated protein in a three-dimensional skin model in a manner dependent on the concentration. Accordingly, whether or not a combined use of Bletilla striata extract and silybin would synergistically suppress accumulation of carbonylated protein was evaluated. Also, whether or not a combined use of silybin and soybean saponin, a substance known to have an action to suppress accumulation of carbonylated protein, would synergistically suppress accumulation of carbonylated protein was evaluated. As a result, regardless of whether or not UV light was irradiated using silybin (3 μM) in combination with Bletilla striata extract (0.1%; final extract concentration of 0.001%), or using silybin (3 μM) in combination with soybean saponin (0.0005%), suppressed the accumulation of carbonylated protein synergistically compared to when a sample was treated with silybin (3 μM), Bletilla striata extract (0.1%; final extract concentration of 0.001%) or soybean saponin (0.0005%) alone, as far as accumulation of carbonylated protein in a three-dimensional skin model was concerned (FIG. 7 and Table 7; results of non-reduced protein).

Question: CC1=C(/C=C/C(C)=C/C=C/C(C)=C/C(=O)O)C(C)(C)CCC1 [Retinoic acid, all-trans-retinoic acid] was tested. Which “proteasome activity compared to the sample not given any treatment under UV irradiation (75%)” value ([1]; 3 μM) did it give?
Answer: The value was “little change”.

Question: What about the “proteasome activity compared to the sample not given any treatment” value ([1]; 3 μM) of the same molecule?
Answer: The value was “little change”.

Question: What about the “effect on proteasome activity” value [1] of the same molecule?
Answer: Its value is “no effect”.

Question: And the “amount of carbonylated protein compared to the sample not given any treatment under UV irradiation” value ([2]; non-reduced protein, 3 μM)?
Answer: Its value is “little change”.

Question: What about the “Relative photographic density (carbonylated protein)” value (“Relative photographic density” for short) ([2]; non-reduced protein, treatment concentration 3 μM, UV (+)) of the same molecule?
Answer: Its value is 305%.

Question: And the “Relative photographic density” value ([2]; non-reduced protein, treatment concentration 3 μM, UV (−))?
Answer: The value was 110%.

Question: And the “Relative photographic density” value ([2]; non-reduced protein, treatment concentration 3 μM, UV (−), listed as retinoic acid)?
Answer: Its value is “little change”.

Question: What about the “amount of carbonylated protein compared to the sample not given any treatment under UV irradiation” value ([2]; reduced protein, 3 μM) of the same molecule?
Answer: Its value is “little change”.

Question: And the “Relative photographic density” value ([2]; reduced protein, treatment concentration 3 μM, UV (+))?
Answer: Its value is 315%.

Question: What about the “Relative photographic density” value ([2]; reduced protein, treatment concentration 3 μM, UV (−)) of the same molecule?
Answer: The value was 105%.

Question: And the “Relative photographic density” value ([2]; reduced protein, treatment concentration 3 μM, UV (−), listed as retinoic acid)?
Answer: The value was “little change”.

Question: And the “effect on accumulation of carbonylated protein” value [2]?
Answer: Its value is “no effect”.

Question: Which “proteasome activity compared to the sample not given any treatment under UV irradiation (75%)” value ([1]; 10 μM) does the source give for CC1=C(/C=C/C(C)=C/C=C/C(C)=C/CO)C(C)(C)CCC1 [Retinol, all-trans-retinol] here?
Answer: Its value is “little change”.

Question: And the “proteasome activity compared to the sample not given any treatment” value ([1]; 10 μM)?
Answer: Its value is “little change”.

Question: And the “effect on proteasome activity” value [1]?
Answer: The value was “no effect”.

Question: And the “amount of carbonylated protein compared to the sample not given any treatment under UV irradiation” value ([2]; non-reduced protein, 10 μM)?
Answer: Its value is “little change”.

Question: What about the “Relative photographic density” value ([2]; non-reduced protein, treatment concentration 10 μM, UV (+)) of the same molecule?
Answer: Its value is 315%.

Question: And the “Relative photographic density” value ([2]; non-reduced protein, treatment concentration 10 μM, UV (−))?
Answer: The value was 115%.

Question: And the “Relative photographic density” value ([2]; non-reduced protein, treatment concentration 10 μM, UV (−), listed as retinol)?
Answer: Its value is “little change”.

Question: And the “amount of carbonylated protein compared to the sample not given any treatment under UV irradiation” value ([2]; reduced protein, 10 μM)?
Answer: Its value is “little change”.

Question: What about the “Relative photographic density” value ([2]; reduced protein, treatment concentration 10 μM, UV (+)) of the same molecule?
Answer: The value was 330%.

Question: What about the “Relative photographic density” value ([2]; reduced protein, treatment concentration 10 μM, UV (−)) of the same molecule?
Answer: The value was 110%.

Question: What about the “Relative photographic density” value ([2]; reduced protein, treatment concentration 10 μM, UV (−), listed as retinol) of the same molecule?
Answer: The value was “little change”.

Question: And the “effect on accumulation of carbonylated protein” value [2]?
Answer: The value was “no effect”.

Reference: US20110003760A1, “ABNORMAL PROTEIN REMOVING METHOD” (priority 2005, published 2011)
